≈ marks a conversion by molar mass, not a printed value. Counter-ions that a name gives are not always drawn. Values belong to the compound of their own block, whether it stands above or below them.
What was measured:
[1] = Dynamic vapor sorption measurement; assay type: physicochemical; conditions: for Diffractogram after DVS measurement versus initial: XRPD after humidity cycles
Procedure: Vapour sorption experiments were performed in the instrument SPSx-1 μ (Projekt Messtechnik, Ulm, Germany) at a temperature of 25° C., using the humidity cycles specified below: [table]

[2] = cited from earlier work
[3] = Solubility determination in organic solvents at room temperature; assay type: physicochemical; conditions: chloroform, 23 °C, organic solvent or mixture, thermodynamic from solid, 23° C. (room temperature)
Procedure: Solubilities in organic solvents (methanol, acetone, chloroform, DMSO) were determined similarly at room temperature with the difference that the suspensions were not stirred but treated with a vortex mixer for 20 s.

[4] = Solubility determination in aqueous solvents at 37° C.; assay type: physicochemical; conditions: for solubility at 60 min / solubility at 15 min: 37 °C, thermodynamic from solid
Procedure: Approximately 200 mg (exactly weighed) test substance was weighed into a glass vial, followed by addition of 2 mL solvent (water, 0.01M HCl, 20 mM NaOAc/HOAc pH 4.5, 50 mM KH2PO4 pH 6.8). A stirring bar was added, the vial was fixed in a block heater at 37° C. and the suspension was stirred with approximately 250 rpm. After 15 min and 1 hour samples were withdrawn, filtered through a 0.2 μm disposable filter, diluted with solvent and quantified by UHPLC/UV.

[5] = 25° C., humidity cycles 0-95% RH
[6] = 50 mM KH2PO4 buffer, pH 6.8, aqueous buffer, 50 mM KH2PO4 (pH 6.8)

Sample weight change after the DVS measurement [1, 5]: −0.5%
SMILES: CC(=O)O.CC(=O)c1c(C)c2cnc(Nc3ccc(N4CCNCC4)cn3)nc2n(C2CCCC2)c1=O [Palbociclib acetic acid adduct Form 1]
Diffractogram after DVS measurement versus initial [1]: practically identical with the initial one

SMILES: CC(=O)c1c(C)c2cnc(Nc3ccc(N4CCNCC4)cn3)nc2n(C2CCCC2)c1=O [Palbociclib in form of the free base, 6-acetyl-8-cyclopentyl-5-methyl-2-{[5-(1-piperazinyl)-2-pyridinyl]amino}pyrido[2,3-d]pyrimidin-7(8H)-one]
Solubility under acidic conditions (in words) ([2]; at or below pH 4): good solubility
Solubility in water (in words) [2]: practically insoluble

solubility at 20 s [3]: 86100 µg/mL (≈ 192 mM)
Maximum water uptake [1, 5]: 1.3%
Sample weight change after the DVS measurement [1, 5]: −0.2%
solubility at 60 min ([4]; 0.01M HCl, pH 2, simulated gastric fluid): 4300 µg/mL (≈ 9.61 mM)
solubility at 15 min ([4]; 20 mM NaOAc/HOAc buffer, pH 4.5, aqueous buffer, 20 mM NaOAc/HOAc (pH 4.5)): 16200 µg/mL (≈ 36.2 mM)
solubility at 15 min [4, 6]: 100 µg/mL (≈ 0.223 mM)
solubility at 60 min [4, 6]: 100 µg/mL (≈ 0.223 mM)
Solubility in aqueous solvents compared with Form A (in words) ([4]; aqueous solvents): comparable to that of Form A
SMILES: CC(=O)c1c(C)c2cnc(Nc3ccc(N4CCNCC4)cn3)nc2n(C2CCCC2)c1=O [Palbociclib in present crystalline Form, 6-acetyl-8-cyclopentyl-5-methyl-2-{[5-(1-piperazinyl)-2-pyridinyl]amino}pyrido[2,3-d]pyrimidin-7(8H)-one]
Diffractogram after DVS measurement versus initial [1]: practically identical with the initial one

SMILES: CC(=O)c1c(C)c2cnc(Nc3ccc(N4CCNCC4)cn3)nc2n(C2CCCC2)c1=O [dihydrochloride]
Solubility in water (in words) [2]: good water solubility

SMILES: CC(=O)c1c(C)c2cnc(Nc3ccc(N4CCNCC4)cn3)nc2n(C2CCCC2)c1=O [hydrochloride]
Solubility in water (in words) [2]: good water solubility

Source: patent publication US10526326B2, “Crystalline form and acetic acid adducts of palbociclib” (RATIOPHARM GMBH, priority 2015, dated 2020)
